US20080234262A1 (Wyeth, priority 2007, published 2008)

Tests used:
[1] = test system: breast line MDA468; test: In vitro cell culture growth assay (MTS), MDA468; assay type: cell-based, human; conditions: Homo sapiens, 72 h, MDA468 cells, three days after drug treatment
In short: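 Growth measured as percent of same-plate vehicle control by MTS metabolic dye conversion (A490). Breast MDA468 and prostate LNCap cells, plated a day ahead, were exposed to compounds for 3 days.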

[2] = biological target: PI3K (Homo sapiens, UniProt P42336); test: Fluorescence polarization assay for PI3K; assay type: biochemical; conditions: PI3Kα; read-out: PI3Kα IC50;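 further: PI3K kinase reaction on PIP2 with ATP, 30-60 min, product sensed by GST-GRP with red probe in fluorescence polarization (mP), controls without enzyme and at zero time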
Chain of PI3K (P42336 whole entry): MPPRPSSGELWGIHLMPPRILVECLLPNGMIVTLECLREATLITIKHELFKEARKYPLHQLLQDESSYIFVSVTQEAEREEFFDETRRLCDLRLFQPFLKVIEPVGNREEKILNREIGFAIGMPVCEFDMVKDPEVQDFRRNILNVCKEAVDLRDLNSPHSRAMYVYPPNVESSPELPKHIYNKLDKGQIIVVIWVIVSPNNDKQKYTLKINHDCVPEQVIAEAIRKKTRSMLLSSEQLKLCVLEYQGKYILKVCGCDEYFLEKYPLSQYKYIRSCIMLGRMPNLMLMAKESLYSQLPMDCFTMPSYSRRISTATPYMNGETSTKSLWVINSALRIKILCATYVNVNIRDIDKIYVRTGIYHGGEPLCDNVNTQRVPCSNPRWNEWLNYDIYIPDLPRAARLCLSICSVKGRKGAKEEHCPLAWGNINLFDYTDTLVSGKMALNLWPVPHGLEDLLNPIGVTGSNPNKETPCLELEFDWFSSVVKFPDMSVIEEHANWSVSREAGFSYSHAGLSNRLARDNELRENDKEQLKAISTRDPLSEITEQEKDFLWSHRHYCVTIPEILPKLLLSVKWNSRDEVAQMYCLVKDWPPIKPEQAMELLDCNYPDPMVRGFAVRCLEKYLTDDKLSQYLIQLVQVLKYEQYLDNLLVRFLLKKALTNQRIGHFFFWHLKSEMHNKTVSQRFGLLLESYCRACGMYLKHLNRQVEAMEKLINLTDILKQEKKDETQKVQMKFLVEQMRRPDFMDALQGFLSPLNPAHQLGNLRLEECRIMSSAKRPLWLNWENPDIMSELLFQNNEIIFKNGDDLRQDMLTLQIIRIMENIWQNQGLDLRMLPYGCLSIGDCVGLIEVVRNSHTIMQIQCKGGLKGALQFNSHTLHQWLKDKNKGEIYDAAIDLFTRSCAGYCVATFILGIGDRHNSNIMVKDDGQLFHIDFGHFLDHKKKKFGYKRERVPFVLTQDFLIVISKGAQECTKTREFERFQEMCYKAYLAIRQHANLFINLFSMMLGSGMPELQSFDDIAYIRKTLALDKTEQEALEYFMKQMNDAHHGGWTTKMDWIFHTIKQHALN
Chain of PI3K (P27986 whole entry partner): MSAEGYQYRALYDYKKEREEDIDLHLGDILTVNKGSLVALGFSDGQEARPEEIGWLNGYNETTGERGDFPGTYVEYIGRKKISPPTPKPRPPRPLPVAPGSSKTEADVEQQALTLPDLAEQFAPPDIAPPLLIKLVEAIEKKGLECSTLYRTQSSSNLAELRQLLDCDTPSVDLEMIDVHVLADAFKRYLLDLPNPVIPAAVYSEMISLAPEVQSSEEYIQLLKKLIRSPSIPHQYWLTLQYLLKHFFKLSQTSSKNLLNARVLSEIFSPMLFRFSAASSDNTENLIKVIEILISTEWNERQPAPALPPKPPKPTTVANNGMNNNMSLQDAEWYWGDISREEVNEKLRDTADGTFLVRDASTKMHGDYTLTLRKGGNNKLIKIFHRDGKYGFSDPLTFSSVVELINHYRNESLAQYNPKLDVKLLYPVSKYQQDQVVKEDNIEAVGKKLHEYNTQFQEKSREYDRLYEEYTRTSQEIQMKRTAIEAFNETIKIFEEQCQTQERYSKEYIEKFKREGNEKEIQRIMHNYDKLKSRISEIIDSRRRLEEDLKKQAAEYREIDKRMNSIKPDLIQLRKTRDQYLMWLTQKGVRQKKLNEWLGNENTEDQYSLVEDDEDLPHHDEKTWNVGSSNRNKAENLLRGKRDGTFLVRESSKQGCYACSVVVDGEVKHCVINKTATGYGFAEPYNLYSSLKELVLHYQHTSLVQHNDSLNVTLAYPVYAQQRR

[3] = test system: prostate line LNCap; test: In vitro cell culture growth assay (MTS), LNCap; assay type: cell-based, human; conditions: Homo sapiens, LNCaP, 72 h, LNCap cells, three days after drug treatment;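 further: viable cell density read by absorbance at 490 nm, growth expressed as percent of vehicle-treated cells on the same plate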

IC50 [2] [µM]	IC50 [3] [µM]	SMILES	IC50 [1] [µM]
2.05	1.1	Nc1ccc(-c2nc(N3CCOCC3)c3cnn(C4CCC5(CC4)OCCO5)c3n2)cc1 [Compound 320, 4-[1-(1,4-dioxaspiro[4.5]dec-8-yl)-4-morpholin-4-yl-1H-pyrazolo[3,4-d]pyrimidin-6-yl]aniline]	7.2
1.65	2	Nc1ccc(-c2nc(N3CCOCC3)c3cnn(C4CCN(Cc5ccccc5)CC4)c3n2)cc1F [Compound 347, 4-[1-(1-benzylpiperidin-4-yl)-4-morpholin-4-yl-1H-pyrazolo[3,4-d]pyrimidin-6-yl]-2-fluoroaniline]	4
0.035	0.027	O=C(Nc1ccncc1)Nc1ccc(-c2nc(N3CCOCC3)c3cnn(C4CCN(Cc5cccnc5)CC4)c3n2)cc1F [Compound 352, 1-(2-fluoro-4-{4-morpholin-4-yl-1-[1-(pyridin-3-ylmethyl)piperidin-4-yl]-1H-pyrazolo[3,4-d]pyrimidin-6-yl}phenyl)-3-pyridin-4-ylurea]	0.1
0.01	0.034	O=C(Nc1ccc(-c2nc(N3CCOCC3)c3cnn(C4CCN(Cc5cccnc5)CC4)c3n2)cc1)Nc1ccsc1 [Compound 375, 1-(4-{4-morpholin-4-yl-1-[1-(pyridin-3-ylmethyl)piperidin-4-yl]-1H-pyrazolo[3,4-d]pyrimidin-6-yl}phenyl)-3-(3-thienyl)urea]	0.1
0.211	1	CNC(=O)Nc1ccc(-c2nc(N3CCOCC3)c3cnn(C4CCN(C)CC4)c3n2)cc1 [Compound 401, 1-methyl-3-{4-[1-(1-methylpiperidin-4-yl)-4-morpholin-4-yl-1H-pyrazolo[3,4-d]pyrimidin-6-yl]phenyl}urea]	3.8
0.1	0.08	CNC(=O)Nc1ccc(-c2nc(N3CCOCC3)c3cnn(C4CCN(C(=O)c5cccnc5Cl)CC4)c3n2)cc1 [Compound 425, 1-[4-(1-{1-[(2-chloropyridin-3-yl)carbonyl]piperidin-4-yl}-4-morpholin-4-yl-1H-pyrazolo[3,4-d]pyrimidin-6-yl)phenyl]-3-methylurea]	0.5
0.112	0.06	CNC(=O)Nc1ccc(-c2nc(N3CCOCC3)c3cnn(C4CCN(Cc5ccncc5)CC4)c3n2)cc1 [Compound 426, 1-methyl-3-(4-{4-morpholin-4-yl-1-[1-(pyridin-4-ylmethyl)piperidin-4-yl]-1H-pyrazolo[3,4-d]pyrimidin-6-yl}phenyl)urea]	0.7
0.034	0.027	CNC(=O)Nc1ccc(-c2nc(N3CCOCC3)c3cnn(C4CCN(Cc5ccc(F)cc5)CC4)c3n2)cc1 [Compound 427, 1-(4-{1-[1-(4-fluorobenzyl)piperidin-4-yl]-4-morpholin-4-yl-1H-pyrazolo[3,4-d]pyrimidin-6-yl}phenyl)-3-methylurea]	0.2
0.03	0.027	CNC(=O)Nc1ccc(-c2nc(N3CCOCC3)c3cnn(C4CCN(Cc5cccc(F)c5)CC4)c3n2)cc1 [Compound 428, 1-(4-{1-[1-(3-fluorobenzyl)piperidin-4-yl]-4-morpholin-4-yl-1H-pyrazolo[3,4-d]pyrimidin-6-yl}phenyl)-3-methylurea]	0.2
1.03	60	O=C1Cc2cc(-c3nc(N4CCOCC4)c4cnn(-c5ccccc5)c4n3)ccc2N1 [Compound 433, 5-(4-morpholin-4-yl-1-phenyl-1H-pyrazolo[3,4-d]pyrimidin-6-yl)-1,3-dihydro-2H-indol-2-one]	60
6.66	39	Nc1ccnc(-c2nc(N3CCOCC3)c3cnn(C4CCN(C(=O)c5cccnc5)CC4)c3n2)c1 [Compound 434, 2-{4-morpholin-4-yl-1-[1-(pyridin-3-ylcarbonyl)piperidin-4-yl]-1H-pyrazolo[3,4-d]pyrimidin-6-yl}pyridin-4-amine]	60
